Results from patent US12221459B2, “Cancer treatment with (2,2-bishydroxymethyl) methylenecyclopropane nucleotides” (MEDIVIR AB, priority 2018, dated 2025).

Experiments:
[1] = Structural integrity of triester phosphoroalaninates by LC MS over 22-29 days; type: physicochemical
Method: Instability of Triester Phosphoroalaninates
Intermediate compounds I-19 d2 and I-25 synthesised above are triesterphosphoro-alaninates resembling the prior art compound described in Yan et al, J Med Chem 2005 48 91-99:
The structural integrity of these model compounds was assessed by LC MS over a 22-29 day period, as follows: […]

[2] = system: MV4-11 cells, human B-myelomonocytic leukemia; experiment: Leukemia cell line activity assay (Cell Counting Kit-8, 5 days), MV4-11; conditions: Homo sapiens, MV4-11, 120 h, read-out: MV4-11 CC50, MV4-11 cells, 5 days incubation
Method: (§1) Compounds of the invention were evaluated for activity against the leukemia cell lines THP-1, EOL-1 and MV4-11, using the following assay:
(§2) Test compounds were made up to 10 mM stock solution in DMSO
(§3) Leukemia cells (THP-1, EOL-1 and MV4-11) were grown in a cell culture flask 75 cm^2 with approximately 100 ml complete cell medium. The cells were counted using a Scepter-hand held automated cell counter, using 60 μm sensors (Millipore) and suspended in complete cell medium to 2×10^5 cells. 100 μl of the cell suspension were seeded to all wells (2×10^4 cells/well).
(§4) The compounds were tested in twelve concentrations, 10-fold serial dilutions, 50 μM-5×10^−10 μM.
(§5) 100 μl from a compound dilution plate were transferred to the cell assay plate=200 μl/well total volume and incubated for 5 days, at 37° C., 5% CO2 incubator.
(§6) After 5 days, 10l of KIT-8 was added and the culture was incubated for 3-4 hours, at 37° C., 5% CO2 incubator.
(§7) Plate were read in the spectrophotometer at wavelength 450 nm with a reference filter of 620 nm.
(§8) CC50 values are calculated by plotting the degree of inhibition (compared to the vehicle ctrl) against the logarithm of the compound concentration. Result values in the dilution series are fitted to a 4-parameter sigmoidal dose-response curve described by the expression: F(x)=D+(A−D)/(1+(x/C)^B) where: • A=Minimum • B=Slope. • C=Inflection point. The inflection point is defined as the point on the curve where the curvature changes direction or signs. • D=Maximum • F=fraction inhibition

[3] = system: THP-1 (human acute monocytic leukemia); experiment: Leukemia cell line activity assay (Cell Counting Kit-8, 5 days), THP-1; conditions: Homo sapiens, THP-1, 120 h, read-out: THP-1 CC50, THP-1 cells, 5 days incubation
Method: as §1, §2, §3, §4, §5, §6, §7, §8

[4] = system: EOL-1 (human); experiment: Leukemia cell line activity assay (Cell Counting Kit-8, 5 days), EOL-1; conditions: Homo sapiens, EOL1, 120 h, read-out: EOL.1 CC50
Method: as §1, §2, §3, §4, §5, §6, §7, §8

Structure (SMILES) | LCMS purity ([1]; Day 0) [%] | LCMS purity ([1]; Day 5) [%] | LCMS purity ([1]; Day 14) [%] | LCMS purity ([1]; Day 22) [%] | CC50 [2] [nM] | CC50 [3] [nM] | CC50 [4] [nM] | LCMS purity ([1]; Day 29) [%]
CCC[C@H](C)OC(=O)[C@H](C)N[P@](=O)(OC[C@]1(CO)C/C1=C/n1cnc2c(=O)[nH]c(N)nc21)Oc1ccc(Br)cc1 (single isomer, unassigned) [Intermediate I-19 d2] | 96.86 | 94.32 | 88.76 | 73.76 | – | – | – | –
CCCC(CCC)COC(=O)[C@H](C)N[P@](=O)(OCC1(COC(=O)C(C)(C)C)C/C1=C/n1cnc2c(=O)[nH]c(N)nc21)Oc1ccccc1 (stereo partly drawn) [Example 38, ((Z)-2-((2-amino-6-oxo-1,6-dihydro-9H-purin-9-yl)methylene)-1-((((S)-(((S)-1-oxo-1-((2-propylpentyl)oxy)propan-2-yl)amino)(phenoxy)phosphoryl)ox)methyl)cyclopropyl)methyl pivalate] | – | – | – | – | 310 | 190 | 210 | –
CC(C)OC(=O)[C@H](C)N[P@](=O)(OC[C@@]1(CO)C/C1=C/n1cnc2c(=O)[nH]c(N)nc21)Oc1ccc(C2(C)CC2)cc1 [Intermediate I-25, (S)-Isopropyl 2-(((S)-(((S,Z)-2-((2-amino-6-oxo-1H-purin-9(6H)-yl)methylene)-1-(hydroxymethyl)cyclopropyl)methoxy)(4-(1-methylcyclopropyl)phenoxy)phosphoryl)amino)propanoate] | 95.56 | 88.14 | 82.67 | 77.76 | – | – | – | 72.84
